Measured values: patent US20120077858A1, “COMPOUNDS ACT AT MULTIPLE PROSTAGLANDIN RECEPTORS GIVING A GENERAL ANTI-INFLAMMATORY RESPONSE” (ALLERGAN, INC., priority 2010, published 2012)
Values joined by “and” are separate entries in the source; they are usually repeats but may differ in a detail not shown here. Equal entries are not always repeated. Where two headings read alike, the source gives them in different places.

Assays:
Assay type in all cases: cell-based
[1] = target: T1, human prostanoid FP receptor (Homo sapiens, UniProt P43088); assay: FLIPR Ca2+ signaling antagonist assay, FP receptor stable cell line; details: HEK-293 EBNA stable cells, vs standard agonist 17-phenyl-PGF2α
T1 construct: expressed in transfected cells
T1 sequence (P43088 whole entry): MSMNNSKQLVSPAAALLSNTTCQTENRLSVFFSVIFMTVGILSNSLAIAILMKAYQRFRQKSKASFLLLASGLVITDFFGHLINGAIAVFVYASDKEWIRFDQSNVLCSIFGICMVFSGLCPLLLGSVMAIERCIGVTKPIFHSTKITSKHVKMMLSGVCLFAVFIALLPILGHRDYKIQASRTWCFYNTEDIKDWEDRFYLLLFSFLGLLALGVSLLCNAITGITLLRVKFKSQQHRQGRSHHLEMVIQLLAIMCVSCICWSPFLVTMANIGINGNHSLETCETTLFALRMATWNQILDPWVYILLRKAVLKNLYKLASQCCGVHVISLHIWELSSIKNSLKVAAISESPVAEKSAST
Experimental: (§1) The above compounds were tested for PG antagonist activity as follows using human recombinant prostanoid receptor (DP1, EP1-4, FP, IP and TP) stable cell lines:
(§2) In order to measure the response of Gs and Gi coupled prostanoid receptors as a Ca^2+ signal, chimeric G protein cDNAs were used. Stable cell lines over-expressing human prostanoid DP1, EP1-4, FP, IP, and TP receptors were established as follows:
(§3) Briefly, human prostanoid DP1, EP2, and EP4 receptor cDNAs were co-transfected with chimeric Gqs cDNA containing a haemagglutanin (HA) epitope; human prostanoid EP3 receptors were co-transfected with chimeric Gqi-HA; human EP1, FP, IP, and TP receptor cDNAs were expressed with no exogenous G-proteins. Gqs and Gqi chimeric cDNAs (Molecular Devices, Sunnyvale, Calif., U.S.A.), as well as cDNAs of prostanoid receptors, were cloned into a pCEP4 vector with a hygromycin B selection marker. Transfection into HEK-293 EBNA (Epstein-Barr virus nuclear antigen) cells was achieved by the FuGENE 6 transfection Reagent (Roche Applied Science, Indianapolis, Ind., USA). Stable transfectants were selected according to hygromycin resistance. Because Gqs and Gqi contained an HA epitope, G-protein expression was detected by Western blotting analysis using anti-mouse HA monoclonal antibody and horseradish peroxidase (HRP)-conjugated secondary antibody, while functional expression of prostanoid receptors was detected by FLIPR screening. These stable cell lines were validated using previously published antagonists at 10 μM against serial dilutions of standard agonists by FLIPR functional assays for Ca^2+ Signaling (as described below).
(§4) Ca^2+ signaling studies were performed using a FLIPR TETRA system (Molecular Devices, Sunnyvale, Calif., USA) in the 384-format. This is a high-throughput instrument for cell-based assays to monitor Ca^2+ signaling associated with GPCRs and ion channels. Cells were seeded at a density of 5×10^4 cells/well in BioCoat poly-D-lysine coated, black wall, clear bottom 384-well plates (BD Biosciences, Franklin lakes, NJ, USA) and allowed to attach overnight in an incubator at 37° C. […]
(§5) After 4.5 minutes, a 7-point serial dilution of the standard agonist for the corresponding receptor, in a 25 μl volume was injected at the final concentrations from 10^−11M to 10^−5M 10-fold serial dilution increments for cells expressing human recombinant DP1, EP1, EP2, EP3, EP4, FP, and IP receptors. […] Cells were excited with LED (light emitting diode) excitation at 470-495 nm and emission was measured through an emission filter at 515-575 nm. Assay plates were read for 3.5 minutes using the FLIPR^TETRA. The peak increase in fluorescence intensity was recorded for each well. […]

[2] = target: T2, human prostanoid EP1 receptor (Homo sapiens, UniProt P34995); assay: FLIPR Ca2+ signaling antagonist assay, EP1 receptor stable cell line; details: vs standard agonist PGE2
T2 construct: expressed in transfected cells
T2 sequence (P34995 1-402): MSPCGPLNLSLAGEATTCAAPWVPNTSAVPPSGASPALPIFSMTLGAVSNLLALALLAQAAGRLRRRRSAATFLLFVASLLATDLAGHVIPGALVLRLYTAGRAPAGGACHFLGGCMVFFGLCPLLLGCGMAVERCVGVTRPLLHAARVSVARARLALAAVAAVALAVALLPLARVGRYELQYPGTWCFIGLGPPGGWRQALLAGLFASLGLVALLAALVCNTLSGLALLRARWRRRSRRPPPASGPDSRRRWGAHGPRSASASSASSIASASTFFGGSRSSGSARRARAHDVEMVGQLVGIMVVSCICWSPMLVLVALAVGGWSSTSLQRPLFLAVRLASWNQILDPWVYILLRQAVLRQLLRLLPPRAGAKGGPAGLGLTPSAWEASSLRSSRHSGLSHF
Experimental: as §1, §2, §3, §4, §5

[3] = target: T3, human prostanoid EP2 receptor (Homo sapiens, UniProt P43116); assay: FLIPR Ca2+ signaling antagonist assay, EP2 receptor stable cell line; details: chimeric Gqs, vs standard agonist PGE2
T3 construct: expressed in transfected cells
T3 sequence (P43116 whole entry): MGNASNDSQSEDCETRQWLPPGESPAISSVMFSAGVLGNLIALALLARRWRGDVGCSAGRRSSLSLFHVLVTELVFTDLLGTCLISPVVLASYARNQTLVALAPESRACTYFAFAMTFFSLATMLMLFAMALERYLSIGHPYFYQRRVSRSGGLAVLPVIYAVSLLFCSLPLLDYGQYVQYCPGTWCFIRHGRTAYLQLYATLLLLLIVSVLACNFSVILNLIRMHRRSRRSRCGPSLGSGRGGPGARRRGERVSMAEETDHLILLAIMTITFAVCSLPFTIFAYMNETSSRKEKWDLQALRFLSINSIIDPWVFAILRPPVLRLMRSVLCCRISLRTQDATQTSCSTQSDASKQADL
Experimental: as §1, §2, §3, §4, §5

[4] = target: T4, human prostanoid EP3 receptor (Homo sapiens, UniProt P43115); assay: FLIPR Ca2+ signaling antagonist assay, EP3 receptor stable cell line; details: chimeric Gqi, vs standard agonist PGE2
T4 construct: expressed in transfected cells
T4 sequence (P43115 1-390): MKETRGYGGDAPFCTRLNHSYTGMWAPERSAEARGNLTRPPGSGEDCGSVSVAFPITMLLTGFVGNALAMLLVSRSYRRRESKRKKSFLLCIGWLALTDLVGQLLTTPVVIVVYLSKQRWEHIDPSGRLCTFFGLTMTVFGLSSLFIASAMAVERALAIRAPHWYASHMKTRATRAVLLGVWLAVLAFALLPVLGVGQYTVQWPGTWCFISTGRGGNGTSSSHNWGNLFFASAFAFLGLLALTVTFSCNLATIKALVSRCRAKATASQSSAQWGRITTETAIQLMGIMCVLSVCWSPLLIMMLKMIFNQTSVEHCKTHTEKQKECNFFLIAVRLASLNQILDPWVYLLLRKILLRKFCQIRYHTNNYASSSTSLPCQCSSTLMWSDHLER
Experimental: as §1, §2, §3, §4, §5

[5] = target: T5, human prostanoid EP4 receptor (Homo sapiens, UniProt P35408); assay: FLIPR Ca2+ signaling antagonist assay, EP4 receptor stable cell line; details: chimeric Gqs, vs standard agonist PGE2
T5 construct: expressed in transfected cells
T5 sequence (P35408 whole entry): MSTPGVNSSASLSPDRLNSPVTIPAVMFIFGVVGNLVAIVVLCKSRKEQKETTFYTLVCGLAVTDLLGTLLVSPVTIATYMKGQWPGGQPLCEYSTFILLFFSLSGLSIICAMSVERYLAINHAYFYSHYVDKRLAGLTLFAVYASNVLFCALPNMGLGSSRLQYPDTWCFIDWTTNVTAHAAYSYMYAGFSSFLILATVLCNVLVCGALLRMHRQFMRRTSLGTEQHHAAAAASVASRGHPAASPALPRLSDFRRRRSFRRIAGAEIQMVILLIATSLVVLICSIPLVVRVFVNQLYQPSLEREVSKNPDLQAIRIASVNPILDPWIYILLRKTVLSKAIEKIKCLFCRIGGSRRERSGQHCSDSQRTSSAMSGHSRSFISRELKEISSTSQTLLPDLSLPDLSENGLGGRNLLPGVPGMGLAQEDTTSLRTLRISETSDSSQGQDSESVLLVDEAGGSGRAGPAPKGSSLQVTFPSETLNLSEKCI
Experimental: as §1, §2, §3, §4, §5

[6] = target: T6, human prostanoid IP receptor (Homo sapiens, UniProt P43119); assay: FLIPR Ca2+ signaling antagonist assay, IP receptor stable cell line; details: HEK-293 EBNA stable cells, vs standard agonist Cicaprost
T6 construct: expressed in transfected cells
T6 sequence (P43119 whole entry): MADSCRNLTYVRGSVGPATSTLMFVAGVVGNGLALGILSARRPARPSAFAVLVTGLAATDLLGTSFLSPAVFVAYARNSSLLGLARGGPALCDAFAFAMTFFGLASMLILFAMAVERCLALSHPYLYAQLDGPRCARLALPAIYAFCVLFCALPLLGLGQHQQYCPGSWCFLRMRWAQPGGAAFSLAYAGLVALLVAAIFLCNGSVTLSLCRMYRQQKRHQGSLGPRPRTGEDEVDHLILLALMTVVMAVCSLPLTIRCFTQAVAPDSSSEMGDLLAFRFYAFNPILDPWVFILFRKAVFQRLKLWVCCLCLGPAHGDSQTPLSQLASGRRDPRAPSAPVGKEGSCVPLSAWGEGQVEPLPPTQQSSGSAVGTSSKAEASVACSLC
Experimental: as §1, §2, §3, §4, §5

[7] = target: T7, human prostanoid TP receptor (Homo sapiens, UniProt P21731); assay: FLIPR Ca2+ signaling antagonist assay, TP receptor stable cell line
T7 construct: expressed in transfected cells
T7 sequence (P21731 1-343): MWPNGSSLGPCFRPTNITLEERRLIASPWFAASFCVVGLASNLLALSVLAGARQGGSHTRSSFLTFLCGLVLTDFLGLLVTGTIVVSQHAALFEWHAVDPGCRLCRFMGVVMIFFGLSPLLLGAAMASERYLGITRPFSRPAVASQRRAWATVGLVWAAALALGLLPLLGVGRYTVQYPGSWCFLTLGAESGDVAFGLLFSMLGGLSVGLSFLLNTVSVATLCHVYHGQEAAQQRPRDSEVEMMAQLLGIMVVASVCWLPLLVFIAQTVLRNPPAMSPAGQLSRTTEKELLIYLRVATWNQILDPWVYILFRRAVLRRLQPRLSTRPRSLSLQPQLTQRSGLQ
Experimental: as §1, §2
as §3, with “These stable cell lines were validated using previously published antagonists at 10 μM against serial dilutions of standard agonists by FLIPR functional assays for Ca^2+ Signaling (as described below).” left out
as §5

[8] = target: T8, human prostanoid DP1 receptor (Homo sapiens, UniProt Q13258); assay: FLIPR Ca2+ signaling antagonist assay, DP1 receptor stable cell line
T8 construct: expressed in transfected cells
T8 sequence (Q13258 1-359): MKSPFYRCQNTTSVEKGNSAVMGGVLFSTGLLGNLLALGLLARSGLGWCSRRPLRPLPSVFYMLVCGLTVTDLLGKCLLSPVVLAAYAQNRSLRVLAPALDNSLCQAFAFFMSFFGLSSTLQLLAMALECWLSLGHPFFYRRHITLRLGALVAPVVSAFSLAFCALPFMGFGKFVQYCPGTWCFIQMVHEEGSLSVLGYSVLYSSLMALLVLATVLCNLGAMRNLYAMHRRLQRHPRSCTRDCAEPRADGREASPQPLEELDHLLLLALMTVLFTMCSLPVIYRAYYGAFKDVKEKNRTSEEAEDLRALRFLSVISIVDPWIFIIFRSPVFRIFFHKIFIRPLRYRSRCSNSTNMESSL
Experimental: as §1, §2
Briefly, human prostanoid DP1, EP2, and EP4 receptor cDNAs were co-transfected with chimeric Gqs cDNA containing a haemagglutanin (HA) epitope; human prostanoid EP3 receptors were co-transfected with chimeric Gqi-HA; human EP1, FP, IP, and TP receptor cDNAs were expressed with no exogenous G-proteins. […] Because Gqs and Gqi contained an HA epitope, G-protein expression was detected by Western blotting analysis using anti-mouse HA monoclonal antibody and horseradish peroxidase (HRP)-conjugated secondary antibody, while functional expression of prostanoid receptors was detected by FLIPR screening. […]
After 4.5 minutes, a 7-point serial dilution of the standard agonist for the corresponding receptor, in a 25 μl volume was injected at the final concentrations from 10^−11M to 10^−5M 10-fold serial dilution increments for cells expressing human recombinant DP1, EP1, EP2, EP3, EP4, FP, and IP receptors. […] Assay plates were read for 3.5 minutes using the FLIPR^TETRA. […]

[9] = read-out: EC50 (nM) on Prostanoid Receptor Functional Activity Measured by FLIPR
[10] = HEK-293 EBNA stable cells, read-out: EC50 (nM) on Prostanoid Receptor Functional Activity Measured by FLIPR, (FLIPR) Kb (nM): EP1
[11] = HEK-293 EBNA stable cells, read-out: EC50 (nM) on Prostanoid Receptor Functional Activity Measured by FLIPR, (FLIPR) Kb (nM): EP2
[12] = HEK-293 EBNA stable cells, read-out: EC50 (nM) on Prostanoid Receptor Functional Activity Measured by FLIPR, (FLIPR) Kb (nM): EP3
[13] = HEK-293 EBNA stable cells, read-out: EC50 (nM) on Prostanoid Receptor Functional Activity Measured by FLIPR, (FLIPR) Kb (nM): EP4
[14] = HEK-293 EBNA stable cells, vs standard agonist U-46619, read-out: EC50 (nM) on Prostanoid Receptor Functional Activity Measured by FLIPR, (FLIPR) Kb (nM): TP
[15] = EC50 (nM) on Prostanoid Receptor Functional Activity Measured by FLIPR

Row | SMILES | Kb [1, 9] | Kb [2, 10] | Kb [3, 11] | Kb [4, 12] | Kb [5, 13] | Kb [6, 9] | Kb [7, 14] [nM] | Kb ([8]; HEK-293 EBNA stable cells, chimeric Gqs, vs standard agonist BW 245C, read-out: EC50 (nM) on Prostanoid Receptor Functional Activity Measured by FLIPR, (FLIPR) Kb (nM): DP) [nM] | Kb [1, 15] [nM] | Kb [8] [nM] | Kb ([2]; EC50 (nM) on Prostanoid Receptor Functional Activity Measured by FLIPR, (FLIPR) Kb (nM): EP1, HEK-293 EBNA stable cells) [nM] | Kb ([3]; EC50 (nM) on Prostanoid Receptor Functional Activity Measured by FLIPR, (FLIPR) Kb (nM): EP2, HEK-293 EBNA stable cells) [nM] | Kb ([4]; EC50 (nM) on Prostanoid Receptor Functional Activity Measured by FLIPR, (FLIPR) Kb (nM): EP3, HEK-293 EBNA stable cells) [nM] | Kb ([5]; EC50 (nM) on Prostanoid Receptor Functional Activity Measured by FLIPR, (FLIPR) Kb (nM): EP4, HEK-293 EBNA stable cells) [nM] | Kb [6, 15] [nM] | Kb [7] [nM]
1 | O=C(CCc1ccc(F)cc1CN1CCC[C@H]1c1nc(C(=O)NCCCCC2CCCCC2)co1)NS(=O)(=O)C(F)(F)F [Example 12a] | 350 nM and 270 nM | 47 nM and 20 nM | 6400 nM and 830 nM | 82 nM and 47 nM | 38 nM and 10 nM | 550 nM and 860 nM | < 1 | – | – | – | – | – | – | – | – | –
2 | O=C(CCc1ccc(Cl)cc1CN1CCC[C@H]1c1nc(C(=O)NCCCCC2CCCCC2)co1)NS(=O)(=O)C(F)(F)F [Example 12b, (S)—N-(4-cyclohexylbutyl)-2-(1-(5-chloro-2-(3-oxo-3-(trifluoromethylsulfonamido)propyl)benzyl)pyrrolidin-2-yl)oxazole-4-carboxamide] | 460 nM | 70 nM | 5500 nM | 100 nM | 37 nM | 9500 nM | – | – | – | – | – | – | – | – | – | –
3 | O=C(CCc1cc2c(cc1CN1CCCC1c1nc(C(=O)NCCCCC3CCCCC3)co1)OCO2)NS(=O)(=O)C(F)(F)F (centres unmarked) [Example 12d] | 360 nM | 63 nM | 3900 nM | 150 nM | 7 nM | 1000 nM | 0.3 | 3 | – | – | – | – | – | – | – | –
4 | CCCCCCCCNC(=O)c1coc(C2CCCN2Cc2cc(F)ccc2CCC(=O)NS(=O)(=O)C(F)(F)F)n1 (centres unmarked) [Example 12e, 2-{1-[5-fluoro-2-(3-oxo-3-{[(trifluoromethyl)sulfonyl]amino}propyl)benzyl]pyrrolidin-2-yl}-N-octyl-1,3-oxazole-4-carboxamide] | – | – | – | – | – | – | – | – | 270 | 18 | 20 | 2500 | 110 | 19 | 290 | > 1
